In this assay the target is β2-adrenergic receptor (β2AR) (Homo sapiens, UniProt P07550). As to the method:
For kinetic assays, the cells were washed with HBSS (Hanks Balanced Salt Solution with 20 mM HEPES) buffer.

Chain of β2-adrenergic receptor (β2AR) (P07550 whole entry): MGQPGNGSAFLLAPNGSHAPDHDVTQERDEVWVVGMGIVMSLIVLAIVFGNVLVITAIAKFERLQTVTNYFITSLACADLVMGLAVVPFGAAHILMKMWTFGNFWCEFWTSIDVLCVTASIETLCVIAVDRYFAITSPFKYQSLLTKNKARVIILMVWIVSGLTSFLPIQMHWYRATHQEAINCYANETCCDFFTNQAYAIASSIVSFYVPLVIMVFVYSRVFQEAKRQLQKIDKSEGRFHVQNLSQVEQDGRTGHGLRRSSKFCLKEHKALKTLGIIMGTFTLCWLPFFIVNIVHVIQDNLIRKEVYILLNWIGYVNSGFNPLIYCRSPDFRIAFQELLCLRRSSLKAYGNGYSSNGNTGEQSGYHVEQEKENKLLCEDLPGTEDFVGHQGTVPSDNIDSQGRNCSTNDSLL

For the compound `CNC[C@H](O)c1ccc(O)c(O)c1` [epinephrine], under “A431 cells”, the “epinephrine-induced DMR signal (phases)” value is on record as “a small N-DMR, followed by a significant P-DMR event” and the “epinephrine-induced DMR signal, dose dependence” value is listed as “dose-dependent DMR signal”. In addition, under “quiescent A431 cells, about 100% confluency, 2 nM epinephrine, pixel level”, the “distribution of DMR signals (P-DMR amplitude, transition time)” value is “relatively tight distribution and are relatively homogenous”.

For the origin of these results see patent US8703428B2, “Single-cell label-free assay” (Corning Incorporated, priority 2007, dated 2014).
